Consider 23 compounds from patent publication US7662819B2, “Pteridinone derivatives for use as stearoyl CoA desaturase inhibitors” (Gilead Palo Alto, Inc., priority 2007, dated 2010).

SMILES strings stand for the structures.

For orientation: IC50 means the concentration that inhibits the measured activity by half.

In this assay the target is T1, stearoyl-CoA desaturase (SCD) (Rattus norvegicus, UniProt P07308).
T1 construct: from tissue; host or cells: liver microsomes of male Sprague Dawley rats, with SCD induced by a carbohydrate-rich diet after fasting/feeding cycles
T1 sequence (P07308 1-358): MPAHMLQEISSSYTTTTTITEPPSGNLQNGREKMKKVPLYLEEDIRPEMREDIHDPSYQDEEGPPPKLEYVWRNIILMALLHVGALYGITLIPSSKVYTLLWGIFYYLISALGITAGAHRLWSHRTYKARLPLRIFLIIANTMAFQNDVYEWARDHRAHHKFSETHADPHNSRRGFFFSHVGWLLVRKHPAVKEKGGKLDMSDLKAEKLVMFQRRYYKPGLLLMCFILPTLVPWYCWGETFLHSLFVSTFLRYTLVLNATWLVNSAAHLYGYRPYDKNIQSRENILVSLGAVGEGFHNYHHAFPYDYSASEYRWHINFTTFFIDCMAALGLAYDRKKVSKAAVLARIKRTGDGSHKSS
Kind of assay: SCD assay in rat liver microsomes ([3H]stearoyl CoA desaturation, adapted from Talamo and Bloch). To be noted: rat liver microsomes 0.2 mg/ml assay final, 30 min preincubation, 45 min reaction, room temperature. Type of assay: biochemical. The source says:
The identification of compounds of the invention as SCD inhibitors was readily accomplished using the SCD enzyme and microsomal assay procedure described in Talamo and Bloch (1969) Analytical Biochemistry 29:300-304.
The rat liver microsomes were collected according to the procedure described in Ozols (1990) Methods Enzm, 182:225.
Male Spraque Dawley Rats were placed on regimented fasting protocol for one week to stimulate SCD enzymatic activity. 48-hour periods were alternated between feeding and fasting to induce and down-regulate SCD activity with SCD activity being induced via carbohydrate rich diet prior to liver perfusion and collection.
The rats were anesthetized with Isoflurane inhalation anesthetic, the liver perfused with cold phosphate buffered saline (PBS), weighed, and chilled in cold homogenization buffer (250 mM sucrose, 10 mM Tris, 1 mM EDTA, pH 7.6.
The livers were finely minced and placed in homogenization tube. 40 mL of homogenization buffer was added to the homogenization tube and the liver homogenized and centrifuged in a pre-chilled […] for 10 min at 4° C.
Following centrifugation, the supernatant was collected and the pellet removed and discarded. The supernatant was centrifuge at 10,000 G for 35 minutes. Following centrifugation, the supernatant was collect and the pellet discarded. The supernatant was then centrifuged in a pre-chilled 45-Ti rotor at 130,000 G (41,000 RPM) for 90 minutes at 4° C.
The supernatant was then aspirated off and the collected microsomal pellet washed in 25 mL of Glycerol PBS (1×PBS 7.4, 20% Glycerol) and resuspended in 4-5 volumes of Glycerol PBS.
The protein concentration of the microsomal preparation was determined by BCA assay (Pierce) and the microsomes were aliquoted and stored at −80° C.
Biobeads were ground to a smaller size in a mortar and pestle and resuspended in 3.6% TCA. The beads were then filtered through […] mesh.
SCD was determined in the desaturase assay buffer. This assay buffer contained 0.1 M Tris buffer, pH 7.2, 2 mM NADH, 4.8 mM ATP, 0.5 mM CoA, 4.8 mM MgCl2, and 0.1% BSA.
The Procedure for the SCD Assay (Adapted from Talamo and Bloch (1969) Analytical Biochemistry 29:300-304)
1 μl of each compound of Formula I was added to an assay plate by a low volume (0.5-10 μL) multichannel pipette. A DMSO control was also prepared. The microsomes were quickly thawed and added to assay buffer so that a concentration of 0.4 mg/ml was achieved (0.2 mg/ml assay final). 50 μl of the microsome suspension in assay buffer was then added into each well in the compound assay plate, the plate was covered, and the microsomes preincubated with the compounds for 30 minutes on the orbital shaker, 50-75 rpm, at room temperature.
After preincubation, the reaction was initiated by the addition of 50 μl of substrate solution (20 μM Stearoyl CoA, [3H]Stearoyl CoA, 74 nCi) to the preincubated microsomes/compound suspensions in MilliQ (Millipore) H2O. The reaction mixtures were then incubated for 45 minutes on the orbital shaker at 50-75 rpm at room temperature.
The reaction was terminated by the addition of 10 μl of 21% […] (TCA) to the reaction mixture followed incubation on the orbital shaker for 30 minutes at 50-75 rpm at room temperature followed by centrifugation for 5 minutes at 3700 rpm.
50 μl of a 6% Bio-Bead suspension in H2O was added to the reaction mixture and the assay plate was sealed. The Bio-Bead mixture was incubated on the orbital shaker for 1 hour, 100-150 rpm at room temperature, and then the mixture was centrifuged at 2000 g for 5 minutes to pellet the Bio-Beads.
25 μl of the supernatant was harvested from each well and transferred to a detection plate. 100 μl of OptiPhase SuperMix scinitillation cocktail (containing sufficient NaOH to neutralize the TCA) was added and the solutions mixed by vigorous shaking (300-400 rpm) for 5 minutes at room temperature. […]
In general terms: Liver microsomes are a subcellular fraction often used to study metabolism.
`COc1ccc(-c2nc3cnc(NCc4ccc(Cl)c(Cl)c4)nc3n(CCNC(C)=O)c2=O)cc1` [Compound 1, N-[2-(2-{[(3,4-dichlorophenyl)methyl]amino}-6-(4-methoxyphenyl)-7-oxo-8-hydropteridin-8-yl)ethyl]acetamide] yielded a half-maximal inhibitory concentration (IC50) of 0.16 µM.

For the compound `COc1ccc(-c2nc3cnc(NCc4ccc(Cl)c(Cl)c4)nc3n(CCNS(C)(=O)=O)c2=O)cc1` [Compound 2, 2-{[(3,4-dichlorophenyl)methyl]amino}-6-(4-methoxyphenyl)-8-{2-[(methylsulfonyl)amino]ethyl}-8-hydropteridin-7-one], the IC50 amounted to 2.8 µM. Against the preceding compound, the IC50 is about 18-fold higher.

`COc1ccc(-c2nc3cnc(NCc4ccc(Cl)c(Cl)c4)nc3n([C@@H]3CCNC3)c2=O)cc1` [Compound 3, 8-((3R)pyrrolidin-3-yl)-2-{[(3,4-dichlorophenyl)methyl]amino}-6-(4-methoxyphenyl)-8-hydropteridin-7-one] had a 50% inhibitory concentration (IC50) of 5 µM.

As to `COc1ccc(-c2nc3cnc(NCc4ccc(Cl)c(Cl)c4)nc3n(CCNC(=O)c3cccnc3)c2=O)cc1` [Compound 4, N-[2-(2-{[(3,4-dichlorophenyl)methyl]amino}-6-(4-methoxyphenyl)-7-oxo(8-hydropteridin-8-yl))ethyl]-3-pyridylcarboxamide], the IC50 stood at 1.6 µM.

In the case of `CCCC(=O)NCCn1c(=O)c(-c2ccc(OC)cc2)nc2cnc(NCc3ccc(Cl)c(Cl)c3)nc21` [Compound 5, N-[2-(2-{[(3,4-dichlorophenyl)methyl]amino}-6-(4-methoxyphenyl)-7-oxo-8-hydropteridin-8-yl)ethyl]butanamide], the IC50 turned out to be 18 µM.

`CCC(=O)NCCn1c(=O)c(-c2ccc(OC)cc2)nc2cnc(NCc3ccc(Cl)c(Cl)c3)nc21` [Compound 6, N-[2-(2-{[(3,4-dichlorophenyl)methyl]amino}-6-(4-methoxyphenyl)-7-oxo-8-hydropteridin-8-yl)ethyl]propanamide] displayed a half-maximal inhibitory concentration (IC50) of 2.8 µM.

`COc1ccc(-c2nc3cnc(NCc4ccc(Cl)c(Cl)c4)nc3n(CCNC(=O)c3ccccc3)c2=O)cc1` [Compound 7, N-[2-(2-{[(3,4-dichlorophenyl)methyl]amino}-6-(4-methoxyphenyl)-7-oxo(8-hydropteridin-8-yl))ethyl]benzamide] had an IC50 of 0.56 µM.

Compound `COCC(=O)NCCn1c(=O)c(-c2ccc(OC)cc2)nc2cnc(NCc3ccc(Cl)c(Cl)c3)nc21` [Compound 8, N-[2-(2-{[(3,4-dichlorophenyl)methyl]amino}-6-(4-methoxyphenyl)-7-oxo(8-hydropteridin-8-yl))ethyl]-2-methoxyacetamide] came in with an IC50 of 1.8 µM. Compared with the last compound, the IC50 is about 3.2-fold higher.

Turning to `CC(=O)NCCn1c(=O)c(-c2cccnc2)nc2cnc(NCc3ccccc3)nc21` [Compound 9, N-(2-{7-oxo-2-[benzylamino]-6-(3-pyridyl)-8-hydropteridin-8-yl}ethyl)acetamide], the half-maximal inhibitory concentration (IC50) was 2.6 µM.

As for `COc1ccc(-c2nc3cnc(NCc4ccc(F)cc4)nc3n(CCNC(C)=O)c2=O)cc1` [Compound 10, N-[2-(2-{[(4-fluorophenyl)methyl]amino}-6-(4-methoxyphenyl)-7-oxo-8-hydropteridin-8-yl)ethyl]acetamide], the IC50 is 1.3 µM.

In turn, `CC(=O)NCCn1c(=O)c(-c2cccnc2)nc2cnc(NCc3ccc(F)cc3)nc21` [Compound 11, N-[2-(2-{[(4-fluorophenyl)methyl]amino}-7-oxo-6-(3-pyridyl)-8-hydropteridin-8-yl)ethyl]acetamide] returned an IC50 of 5.7 µM.

`CC(=O)NCCn1c(=O)c(-c2cccnc2)nc2cnc(NCc3ccc(Cl)c(Cl)c3)nc21` [Compound 12, N-[2-(2-{[(3,4-dichlorophenyl)methyl]amino}-7-oxo-6-(3-pyridyl)-8-hydropteridin-8-yl)ethyl]acetamide] registered an IC50 of 0.23 µM.

With `CC(=O)NCCn1c(=O)c(C(F)(F)F)nc2cnc(NCc3ccc(Cl)c(Cl)c3)nc21` [Compound 13, N-[2-(2-{[(3,4-dichlorophenyl)methyl]amino}-7-oxo-6-(trifluoromethyl)-8-hydropteridin-8-yl)ethyl]acetamide], the IC50 was 2.1 µM.

As for `CC(=O)NCCn1c(=O)c(-c2cccs2)nc2cnc(NCc3ccc(Cl)c(Cl)c3)nc21` [Compound 14, N-[2-(2-{[(3,4-dichlorophenyl)methyl]amino}-7-oxo-6-(2-thienyl)-8-hydropteridin-8-yl)ethyl]acetamide], half-maximal inhibition (IC50) required 2 µM.

Regarding `O=c1c(-c2cccnc2)nc2cnc(NCc3ccc(Cl)c(Cl)c3)nc2n1CCn1cncn1` [Compound 15, 2-{[(3,4-dichlorophenyl)methyl]amino}-6-(3-pyridyl)-8-(2-(1,2,4-triazolyl)ethyl)-8-hydropteridin-7-one], it took 5.8 µM to reach half-maximal inhibition (IC50). Against the preceding compound, the IC50 is about 2.9-fold higher.

The compound `COc1ccc(-c2nc3cnc(NCc4ccc(Cl)c(Cl)c4)nc3n(CCNC(=N)N)c2=O)cc1` [Compound 16, amino[2-(2-{[(3,4-dichlorophenyl)methyl]amino}-6-(4-methoxyphenyl)-7-oxo(8-hydropteridin-8-yl))ethyl]carboxamidine] returned an IC50 of 11 µM.

Turning to `CC(=O)NCCn1c(=O)cnc2cnc(NCc3ccc(Cl)c(Cl)c3)nc21` [Compound 17, N-[2-(2-{[(3,4-dichlorophenyl)methyl]amino}-7-oxo-8-hydropteridin-8-yl)ethyl]acetamide], half-maximal inhibition (IC50) was put at 0.34 µM.

In turn, `COc1ccc(-c2nc3cnc(NCc4ccc(F)c(F)c4)nc3n(CCNC(C)=O)c2=O)cc1` [Compound 18, N-[2-(2-{[(3,4-difluorophenyl)methyl]amino}-6-(4-methoxyphenyl)-7-oxo-8-hydropteridin-8-yl)ethyl]acetamide] came in with an IC50 of 13 µM.

The compound `CC(=O)NCCn1c(=O)c(-c2cccs2)nc2cnc(NCc3ccc(F)c(F)c3)nc21` [Compound 19, N-[2-(2-{[(3,4-difluorophenyl)methyl]amino}-7-oxo-6-(2-thienyl)-8-hydropteridin-8-yl)ethyl]acetamide] had an IC50 of 3.4 µM. Against the preceding compound, the IC50 is about 3.8-fold lower.

`CC(=O)NCCn1c(=O)c(C(F)(F)F)nc2cnc(NCc3ccc(F)cc3)nc21` [Compound 20, N-[2-(2-{[(4-fluorophenyl)methyl]amino}-7-oxo-6-(trifluoromethyl)-8-hydropteridin-8-yl)ethyl]acetamide]: the IC50 worked out at 22 µM.

Regarding `CC(=O)NCCn1c(=O)c(-c2ncccn2)nc2cnc(NCc3ccc(Cl)c(Cl)c3)nc21` [Compound 21, N-[2-(2-{[(3,4-dichlorophenyl)methyl]amino}-7-oxo-6-pyrimidin-2-yl-8-hydropteridin-8-yl)ethyl]acetamide], 4.34 µM corresponded to half-maximal inhibition (IC50).

For `COc1ccc(-c2nc3cnc(NCc4ccc(Cl)c(Cl)c4)nc3n(CCNC(C)=O)c2=O)cc1F` [Compound 22, N-[2-(2-{[(3,4-dichlorophenyl)methyl]amino}-6-(3-fluoro-4-methoxyphenyl)-7-oxo-8-hydropteridin-8-yl)ethyl]acetamide], it took 2.21 µM to reach half-maximal inhibition (IC50).

As for `COc1ccc(-c2nc3cnc(NCc4ccc(Cl)c(Cl)c4)nc3n(CCNC(=O)c3ccsc3)c2=O)cc1` [Compound 23, N-[2-(2-{[(3,4-dichlorophenyl)methyl]amino}-6-(4-methoxyphenyl)-7-oxo(8-hydropteridin-8-yl))ethyl]-3-thienylcarboxamide], half-maximal inhibition (IC50) was put at 0.47 µM.
